From patent US8501936B2 (priority 2009, dated 2013)

What follows are molecules tested against human JAK2 (Homo sapiens (Human), UniProt O60674). Details: read-out: JAK2 IC50.
Sequence of human JAK2 (O60674 815-1132): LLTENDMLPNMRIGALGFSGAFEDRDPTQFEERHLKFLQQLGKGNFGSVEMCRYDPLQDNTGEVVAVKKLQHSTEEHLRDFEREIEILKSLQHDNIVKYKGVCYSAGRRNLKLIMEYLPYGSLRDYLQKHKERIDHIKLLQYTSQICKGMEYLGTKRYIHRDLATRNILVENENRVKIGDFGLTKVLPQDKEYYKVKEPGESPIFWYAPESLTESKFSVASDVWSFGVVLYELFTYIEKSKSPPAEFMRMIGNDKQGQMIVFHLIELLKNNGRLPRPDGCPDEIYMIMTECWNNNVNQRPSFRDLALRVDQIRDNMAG

Point of comparison: `CS(=O)(=O)c1ccc(-c2cccn3nc(Nc4ccc(N5CCCCC5)cc4)nc23)cc1` [Example 18, [8-(4-Methanesulfonyl-phenyl)-[1,2,4]triazolo[1,5-a]pyridin-2-yl]-(4-piperidin-1-yl-phenyl)-amine], IC50 0.0006 µM. Against it:
- c1ccc(Nc2nc3ccccn3n2)cc1 [Example 1, Phenyl-[1,2,4]triazolo[1,5-a]pyridin-2-yl-amine] — 1800-fold higher, 1.09 µM
- COc1ccccc1-c1cccn2nc(Nc3ccc(N4CCOCC4)cc3)nc12 [Example 2, [8-(2-Methoxy-phenyl)-[1,2,4]triazolo[1,5-a]pyridin-2-yl]-(4-morpholin-4-yl-phenyl)-amine] — 33-fold higher, 0.02 µM
- c1cc(-c2ccncc2)c2nc(Nc3ccc(OCCN4CCCC4)cc3)nn2c1 [Example 15, (8-pyridin-4-yl-[1,2,4]triazolo[1,5-a]pyridin-2-yl)-[4-(2-pyrrolidin-1-yl-ethoxy)-phenyl]-amine] — 5000-fold higher, 3 µM
- COc1ccccc1Nc1nc2c(-c3cccc(C(F)(F)F)c3)cccn2n1 [Example 21, (2-Methoxy-phenyl)-[8-(3-trifluoromethyl-phenyl)-[1,2,4]triazolo[1,5-a]pyridin-2-yl]-amine] — 5000-fold higher, 3 µM
- COc1ccccc1Nc1nc2c(-c3ccc(S(C)(=O)=O)cc3)cccn2n1 [Example 25, [8-(4-Methanesulfonyl-phenyl)-[1,2,4]triazolo[1,5-a]pyridin-2-yl]-(2-methoxy-phenyl)-amine] — 2200-fold higher, 1.32 µM
- CC1(C)CCC(C)(C)c2cc(Nc3nc4c(-c5ccc(S(C)(=O)=O)cc5)cccn4n3)ccc21 [Example 28, [8-(4-Methanesulfonyl-phenyl)-[1,2,4]triazolo[1,5-a]pyridin-2-yl]-(5,5,8,8-tetramethyl-5,6,7,8-tetrahydro-naphthalen-2-yl)-amine] — 46-fold higher, 0.0277 µM
- COc1ccc(Nc2nc3c(N4CCN(C)CC4)cccn3n2)cc1 [Example 30, (4-Methoxy-phenyl)-[8-(4-methyl-piperazin-1-yl)-[1,2,4]triazolo[1,5-a]pyridin-2-yl]-amine] — 740-fold higher, 0.441 µM
- COc1ccc(Nc2nc3c(N4CCN(S(C)(=O)=O)CC4)cccn3n2)cc1 [Example 33, [8-(4-Methanesulfonyl-piperazin-1-yl)-[1,2,4]triazolo[1,5-a]pyridin-2-yl]-(4-methoxy-phenyl)-amine] — 100-fold higher, 0.0604 µM
- COc1ccc(Nc2nc3c(C4=CCN(S(C)(=O)=O)CC4)cccn3n2)cc1 [Example 34, [8-(1-Methanesulfonyl-1,2,3,6-tetrahydro-pyridin-4-yl)-[1,2,4]triazolo[1,5-a]pyridin-2-yl]-(4-methoxy-phenyl)-amine] — 1.7-fold higher, 0.001 µM
- CN1CCN(c2ccc(Nc3nc4ccc(-c5ccc(S(C)(=O)=O)cc5)cn4n3)cc2)CC1 [Example 37, [6-(4-Methanesulfonyl-phenyl)-[1,2,4]triazolo[1,5-a]pyridin-2-yl]-[4-(4-methyl-piperazin-1-yl)-phenyl]-amine] — 5000-fold higher, 2.97 µM
- COc1ccc(Nc2nc3c(NC4CCN(S(C)(=O)=O)CC4)cccn3n2)cc1 [Example 41, N(8)-(1-Methanesulfonyl-piperidin-4-yl)-N(2)-(4-methoxy-phenyl)-[1,2,4]triazolo[1,5-a]pyridine-2,8-diamine] — 620-fold higher, 0.375 µM
- CS(=O)(=O)c1ccc(-c2cccn3nc(Nc4ccc(OS(=O)(=O)C(F)(F)C(F)(F)C(F)(F)C(F)(F)F)cc4)nc23)cc1 [Example 45, 1,1,2,2,3,3,4,4,4-Nonafluoro-butane-1-sulfonic acid 4-[8-(4-methanesulfonyl-phenyl)-[1,2,4]triazolo[1,5-a]pyridin-2-ylamino]-phenyl ester] — 180-fold higher, 0.106 µM
- CN1CCN(c2cccc(Nc3nc4c(-c5ccccc5S(C)(=O)=O)cccn4n3)c2)CC1 [Example 67, [8-(2-Methanesulfonyl-phenyl)-[1,2,4]triazolo[1,5-a]pyridin-2-yl]-[3-(4-methyl-piperazin-1-yl)-phenyl]-amine] — 4200-fold higher, 2.5 µM
- CN1CCN(c2cccc(Nc3nc4c(Nc5ccccc5S(C)(=O)=O)cccn4n3)c2)CC1 [Example 68, N(8)-(2-Methanesulfonyl-phenyl)-N(2)-[3-(4-methyl-piperazin-1-yl)-phenyl]-[1,2,4]triazolo[1,5-a]pyridine-2,8-diamine] — 48-fold higher, 0.029 µM
- CC(C)(C)OC(=O)N1CCN(c2ccc(Nc3nc4cccc(-c5ccccc5)n4n3)cc2)CC1 [Example 77, 4-[4-(5-Phenyl-[1,2,4]triazolo[1,5-a]pyridin-2-ylamino)-phenyl]-piperazine-1-carboxylic acid tert-butyl ester] — 11-fold higher, 0.0066 µM
- COc1cccc(Nc2nc3cccc(-c4cccc(S(C)(=O)=O)c4)n3n2)c1 [Example 79, [5-(3-Methanesulfonyl-phenyl)-[1,2,4]triazolo[1,5-a]pyridin-2-yl]-(3-methoxy-phenyl)-amine] — 25-fold higher, 0.0151 µM
- COc1ccccc1Nc1nc2cccc(-c3cccc(S(C)(=O)=O)c3)n2n1 [Example 80, [5-(3-Methanesulfonyl-phenyl)-[1,2,4]triazolo[1,5-a]pyridin-2-yl]-(2-methoxy-phenyl)-amine] — 2000-fold higher, 1.21 µM
- CN1CCN(c2ccc(NC(=O)Nc3nc4cccc(-c5ccc(S(C)(=O)=O)cc5)n4n3)cc2)CC1 [Example 90, 1-[5-(4-Methanesulfonyl-phenyl)-[1,2,4]triazolo[1,5-a]pyridin-2-yl]-3-[4-(4-methyl-piperazin-1-yl)-phenyl]-urea] — 2600-fold higher, 1.53 µM
- Cc1nn(C)c(C)c1Nc1nc2c(-c3ccc(S(C)(=O)=O)cc3)cccn2n1 [Example 210, [8-(4-Methanesulfonyl-phenyl)-[1,2,4]triazolo[1,5-a]pyridin-2-yl]-(1,3,5-trimethyl-1H-pyrazol-4-yl)-amine] — 5000-fold higher, 3 µM
- CN1CCN(c2cccc(Nc3nc4c(Oc5ccc(S(C)(=O)=O)cc5)cccn4n3)c2)CC1 [Example 214, [8-(4-Methanesulfonyl-phenoxy)-[1,2,4]triazolo[1,5-a]pyridin-2-yl]-[3-(4-methyl-piperazin-1-yl)-phenyl]-amine] — 2800-fold higher, 1.65 µM
- CC(C)(C)OC(=O)N1CCc2ccc(Nc3nc4c(-c5cccc6c5OC(F)(F)O6)cccn4n3)cc2CC1 [Example 243] — 3500-fold higher, 2.11 µM
- CN1CCN(c2ccc(Nc3nc4c(O)cccn4n3)cc2)CC1 [Example 264, 2-[4-(4-Methyl-piperazin-1-yl)-phenylamino]-[1,2,4]triazolo[1,5-a]pyridin-8-ol] — 940-fold higher, 0.567 µM
- Cc1cccn2nc(Nc3ccc(S(C)(=O)=O)cc3)nc12 [Example 265, (4-Methanesulfonyl-phenyl)-(8-methyl-[1,2,4]triazolo[1,5-a]pyridin-2-yl)-amine] — 4400-fold higher, 2.62 µM
- CC(C)(C)OC(=O)N1CCc2ccc(Nc3nc4c(-c5cc(C(F)(F)F)ccc5F)cccn4n3)cc2CC1 [Example 269, [8-(2-Fluoro-5-trifluoromethyl-phenyl)-[1,2,4]triazolo[1,5-a]pyridin-2-ylamino]-[2,3,4,5-tetrahydro-1H-benzo[d]azopin-7-yl]-3-carboxylic acid tert-butyl ester] — 980-fold higher, 0.586 µM
- CC(C)(C)OC(=O)N1CCC(c2ccc(Nc3nc4c(-c5cnn(-c6ccc(F)cc6)c5)cccn4n3)cc2)CC1 [Example 280, 4-{4-[8-(1-(4-Fluoro-phenyl)-1H-pyrazol-4-yl)-[1,2,4]triazolo[1,5-a]pyridine-2-ylamino]-phenyl}-piperidine-1-carboxylic acid tert-butyl ester] — 1900-fold higher, 1.11 µM
- COc1cnc(-c2cccn3nc(Nc4ccc(C5CCN(C(=O)OC(C)(C)C)CC5)cc4)nc23)cn1 [Example 284, 4-{4-[8-(5-Methoxy-pyrazin-2-yl)-[1,2,4]triazolo[1,5-a]pyridine-2-ylamino]-phenyl}-piperidine-1-carboxylic acid tert-butyl ester] — 2500-fold higher, 1.49 µM
- Cc1ccc(-n2cc(-c3cccn4nc(Nc5ccc(C6CCN(C(=O)OC(C)(C)C)CC6)cc5)nc34)cn2)cc1 [Example 287, 4-{4-[8-(1-p-Tolyl-1H-pyrazol-4-yl)-[1,2,4]triazolo[1,5-a]pyridine-2-ylamino]-phenyl}-piperidine-1-carboxylic acid tert-butyl ester] — 2800-fold higher, 1.69 µM
- COc1ccc(C(F)(F)F)cc1Nc1cccn2nc(Nc3cccc(N4CCN(C)CC4)c3)nc12 [Example 290, N(8)-(2-Methoxy-5-trifluoromethyl-phenyl)-N(2)-[3-(4-methyl-piperazin-1-yl)-phenyl]-[1,2,4]triazolo[1,5-a]pyridine-2,8-diamine] — 5000-fold higher, 3 µM

Each molecule was assayed against human FAK (Homo sapiens (Human), UniProt Q05397). Details: read-out: FAK IC50.
Sequence of human FAK (Q05397 whole entry): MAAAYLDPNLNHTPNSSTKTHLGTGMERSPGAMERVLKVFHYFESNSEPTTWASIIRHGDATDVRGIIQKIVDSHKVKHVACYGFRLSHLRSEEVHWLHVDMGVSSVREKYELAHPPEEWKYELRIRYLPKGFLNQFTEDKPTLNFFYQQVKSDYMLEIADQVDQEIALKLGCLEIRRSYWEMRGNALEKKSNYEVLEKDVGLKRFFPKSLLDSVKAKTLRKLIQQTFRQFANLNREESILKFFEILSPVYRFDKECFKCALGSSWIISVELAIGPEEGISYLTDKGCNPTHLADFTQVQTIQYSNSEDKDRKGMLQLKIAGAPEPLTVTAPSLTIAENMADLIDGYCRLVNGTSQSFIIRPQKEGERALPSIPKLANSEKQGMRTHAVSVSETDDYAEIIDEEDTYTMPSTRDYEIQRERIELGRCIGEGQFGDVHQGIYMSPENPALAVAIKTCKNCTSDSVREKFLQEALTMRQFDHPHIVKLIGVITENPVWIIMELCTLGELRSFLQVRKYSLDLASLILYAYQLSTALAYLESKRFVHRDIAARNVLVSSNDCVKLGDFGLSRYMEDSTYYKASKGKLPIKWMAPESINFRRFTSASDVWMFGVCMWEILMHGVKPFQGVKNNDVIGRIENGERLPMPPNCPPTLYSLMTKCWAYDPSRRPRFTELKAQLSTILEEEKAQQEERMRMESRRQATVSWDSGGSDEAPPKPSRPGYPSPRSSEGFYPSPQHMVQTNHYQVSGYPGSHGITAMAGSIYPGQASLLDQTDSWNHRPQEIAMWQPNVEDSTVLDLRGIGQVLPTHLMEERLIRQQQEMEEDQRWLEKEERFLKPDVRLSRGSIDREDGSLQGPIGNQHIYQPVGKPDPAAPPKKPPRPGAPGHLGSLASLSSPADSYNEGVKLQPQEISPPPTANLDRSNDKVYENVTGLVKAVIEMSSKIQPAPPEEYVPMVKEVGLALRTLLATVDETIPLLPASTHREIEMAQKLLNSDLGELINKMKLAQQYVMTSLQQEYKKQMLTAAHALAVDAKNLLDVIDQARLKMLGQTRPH

Point of comparison: `FC(F)COc1ccccc1-c1cccn2nc(Nc3ccc4c(c3)CCNCC4)nc12` [Example 367, {8-[2-(2,2-Difluoro-ethoxy)-phenyl]-[1,2,4]triazolo[1,5-a]pyridin-2-yl}-(2,3,4,5-tetrahydro-1H-3-benzazepin-7-yl)-amine], IC50 1.91 µM. Against it:
- COc1ccccc1-c1cccn2nc(Nc3ccc(N4CCOCC4)cc3)nc12 [Example 2, [8-(2-Methoxy-phenyl)-[1,2,4]triazolo[1,5-a]pyridin-2-yl]-(4-morpholin-4-yl-phenyl)-amine] — 3.4-fold higher, 6.5 µM
- CC(C)Oc1ccc(C(F)(F)F)cc1-c1cccn2nc(Nc3ccc4c(c3)CCN(CC(=O)N(C)C)CC4)nc12 [Example 326, 2-{7-[8-(2-Isopropoxy-5-trifluoromethyl-phenyl)-[1,2,4]triazolo[1,5-a]pyridin-2-ylamino]-1,2,4,5-tetrahydro-3-benzazepin-3-yl}-N,N-dimethyl-acetamide] — 2.9-fold higher, 5.5 µM
- COc1cccc(-c2cccn3nc(Nc4ccc5c(c4)CNC5)nc23)c1 [Example 346, (2,3-Dihydro-1H-isoindol-5-yl)-[8-(3-methoxy-phenyl)-[1,2,4]-triazolo[1,5-a]pyridin-2-yl]-amine] — 1.9-fold lower, 0.999 µM
- CC(C)COc1ccc(C(F)(F)F)cc1-c1cccn2nc(Nc3ccc4c(c3)CCNCC4)nc12 [Example 379, [8-(2-Isobutoxy-5-trifluoromethyl-phenyl)-[1,2,4]triazolo[1,5-a]pyridin-2-yl]-(2,3,4,5-tetrahydro-1H-3-benzazepin-7-yl)-amine] — 1.6-fold higher, 3 µM
- COc1cccc(CNc2cccn3nc(Nc4ccncc4)nc23)c1 [Example 399, N(8)-(3-Methoxy-benzyl)-N(2)-pyridin-4-yl-[1,2,4]triazolo[1,5-a]pyridine-2,8-diamine] — 5.2-fold higher, 10 µM
- COc1ccccc1CNc1cccn2nc(Nc3ccncc3)nc12 [Example 401, N(8)-(2-Methoxy-benzyl)-N(2)-pyridin-4-yl-[1,2,4]triazolo[1,5-a]pyridine-2,8-diamine] — 3.4-fold higher, 6.5 µM
- COc1ccc(C(F)(F)F)cc1-c1cccn2nc(Nc3cccc(C4CCN(CC(=O)N(C)C)CC4)c3)nc12 [Example 410] — 2.9-fold lower, 0.658 µM
